From US20150037821A1, “METHODS OF IDENTIFYING HIT-ANTIBODIES AND PF4 ANTAGONISTS AND CELL LINES FOR USE THEREIN” (THE TRUSTEES OF THE UNIVERSITY OF PENNSYLVANIA, priority 2012, published 2015)

T1: PF4 (Homo sapiens, UniProt P02776)
T1 construct: platelet factor 4 which is a 70 amino acid, lysine-rich, 7.8 kDa platelet-specific protein; made in house; host or cells: Drosophila Schneider 2 (S2) cells
T1 sequence (P02776 32-101): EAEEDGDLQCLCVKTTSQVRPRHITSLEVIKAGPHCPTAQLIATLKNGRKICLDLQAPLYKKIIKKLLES


Assays:
PF4 = biological target: T1, PF4; test: DT40 cell (FcγRIIA + NFAT-Luc reporter) activation assay: inhibition by PF4 antagonists; assay type: cell-based; details: for IC50: PF4 10 μg/mL, heparin 0.3 U/mL, KKO 20 μg/mL, luciferase readout after 6 hours; for inhibition of FcγRIIA-dependent cellular activation (in words): activation by KKO, dose-response, FIG. 1C
Experimental: (§1) DT40 cells (chicken B cells) were cultured in RPMI supplemented with 10% fetal bovine serum, 1% chicken serum (Gibco), 50 μM 13-mercaptoethanol, 2 mM GlutaMAX (Gibco), 100 U/mL penicillin and 100 U/mL streptomycin at 37° C. under 5% CO2. Cells were co-transfected with 5 μg pEF6-FcγRIIA and 20 μg pEF6-NFAT-Luc by electroporation. Positive transformants were selected using blastidicin.
On day following transfection, cells were pelleted by centrifugation and re-suspended at 2×10^6 cells/mL in fresh medium without serum. Cell aliquots (50 μL) were placed into each well of a 96 well plate. To establish basal expression, 50 μL media was added. Further, the cells were also incubated independently with the following: PF4, heparin, RTO antibody, KKO antibody, ULCs alone, ULCs and RTO; ULCs and KKO and IV.3 antibody. Monoclonal antibody IV.3 (an FcγRIIA-blocking antibody) was used in combination with an anti-Fc antibody to activate FcγRIIA bound by IV.3 as a positive control for FcγRIIA signaling. 8 μg/mL of IV.3 was added for 15 minutes at 37° C. under 5% CO2, followed by 50 μL of sheep anti-mouse-IgG secondary antibody at 15 μg/mL to crosslink and activate these receptors. As a positive control for an intact intracellular signaling pathway, phorbol myristate acetate (PMA; 25 ng/mL) with ionomycin (1 μM) was added (not shown).
We then used this assay to measure the inhibitory capacity of the PF4 antagonist compounds described in the concurrently filed related application referenced above. PF4 (10 μg/mL) and various concentrations of potential antagonists were co-incubated for 60 min at 37° C. under 5% CO2 followed by the addition of heparin (0.3 U/mL) for 15 min at 37° C. in 5% CO2. KKO (20 μg/mL) or plasma from patients with serotonin release assay confirmed HIT (1:800 dilution) was then added. 50 μL of each mixture was added to the 96 well plate containing 50 μL of cells at a concentration of 2×10^6 cells/mL in fresh medium without serum. Plates were incubated for 6 hours at 37° C. under 5% CO2, and then frozen at −80° C. To measure activation, cells were thawed and lysed with 5× Passive Lysis Buffer (Promega) for 15 minutes. Luciferase activity was measured on a Berthold MultiLumat LB 9506 Luminometer (10 sec readings) using Promega's Luciferase Assay Reagent following the manufacturer's instructions. In other experiments, PF4 antagonists discussed herein were incubated with PF4 for 5 minutes with the same results.

platelets = test: Serotonin release assay with 14C-labeled platelets; assay type: cell-based, human; details: for inhibition of platelet activation by KKO (release of 14C-serotonin): KKO 170 μg/mL, heparin 1.0 U/mL, antagonists 2.5 mM, FIG. 1E
Experimental: To confirm the results of the novel assay, an independent, orthogonal assessment of activity was performed using a serotonin release assay. Serotonin release assays are described in Hirschman, “The use of platelet serotonin release as a sensitive method for detecting anti-platelet antibodies and a plasma anti-platelet factor in patients with idiopathic thrombocytopenic purpura”, Br. J. Haematol., 24(6):793-802 (1973), and Rauova and Cines, “Heparin-associated thrombocytopenia”, N. Engl. J. Med., 303:788-795 (1980), which are hereby incorporated by reference.
Briefly, platelet rich plasma (PRP) from healthy donors was incubated with 0.5 μL ^14C-5-hydroxytryptamine creatinine sulfate (GE Life Sciences, Piscataway, N.J.) per milliliter of PRP for 20 minutes at 37° C. to produce ^14C-labeled platelets. Serotonin uptake was inhibited by adding […] imipramine (Sigma-Aldrich, St. Louis, Mo.) to the PRP.
The radiolabeled platelets were mixed with KKO (170 μg/mL) or with known platelet-activating HIT plasma in the absence (buffer control) or presence of PF4 antagonist compounds 1, 34, 80, 101, and 96. Assays were performed in the presence of heparin (1.0 U/mL) and in the absence of heparin (background). Negative controls without antibody were studied in parallel. Data are expressed as % maximal release of radioactivity with release by the positive control plasma and 1.0 U/mL heparin defined as 100%.

FcγRIIA = test: Activation of DT40 cells transfected with FcγRIIA and a Luc reporter; assay type: cell-based, human; details: FIG. 1A
Experimental: B cells used in the novel assays of the invention were prepared as follows. NFAT-Luc was kindly provided by Prof Arthur Weiss (Shapiro, “c-rel Regulation of IL-2 gene expression may be mediated through activation of AP-1”, J. Exp. Med., 184(5):1663-1669 (1996), hereby incorporated by reference). The NFAT reporter contains three copies of a composite NFAT-activator protein-1 (AP-1) element from the human interleukin-2 (IL-2) gene promoter, and is activated by binding of NFAT (nuclear factor of activated T-cells). pEF6-FcγRIIA, which contains the human FcγRIIA coding sequence under the control of the human EF-1a promoter, was constructed by cloning a human FcγRIIA IMAGE clone into the multiple cloning site of pEF6c (Invitrogen).
as §1, with “blastidicin. […]” for “blastidicin.”
It was next examined whether FcγRIIA activation was heparin-dependent. To do so, activation by KKO was measured using a constant amount of PF4 and increasing amounts of heparin. […]

Molecule	IC50 (PF4) [µM]	inhibition of FcγRIIA-dependent cellular activation (in words) (PF4)	inhibition of DT40 activation by human HIT plasma (PF4; HIT plasma 1:800 dilution, similar potency as activation by KKO, FIG. 1D)	inhibition of DT40 activation by KKO and patient samples (PF4; antagonist concentration 500 μM, KKO and plasma from three HIT patients, FIG. 1D)	inhibition of platelet activation by KKO (release of 14C-serotonin) (platelets)	inhibition of serotonin release from platelets activated by plasma from patients with HIT (platelets; HIT plasma, several antagonist concentrations, FIG. 1F)	activation of FcγRIIA-expressing DT40 cells, substance added alone (FcγRIIA)
CC(=O)C1=C(O)c2cc([N+](=O)[O-])ccc2C1=O [Compound 1]	33	–	–	–	–	–	–
O=C1CC([PH](=O)O)CO1 (stereo not shown) [Compound 34]	> 500	not inhibitory	–	–	–	–	–
O=C(O)CCc1ccc(-c2ccc(Cl)cc2)n1CC(=O)O [Compound 80]	440	less potent	–	–	inhibited	–	–
PF4: platelet factor 4, 70 amino acid, lysine-rich 7.8 kDa platelet-specific CXC chemokine protein (protein, UniProt P02776 32-101, looked up) Platelet factor 4: EAEEDGDLQCLCVKTTSQVRPRHITSLEVIKAGPHCPTAQLIATLKNGRKICLDLQAPLYKKIIKKLLES	–	–	–	–	–	–	did not activate

The next lines start with results.

IC50 (PF4) [µM]	inhibition of FcγRIIA-dependent cellular activation (in words) (PF4)	inhibition of DT40 activation by human HIT plasma (PF4; HIT plasma 1:800 dilution, similar potency as activation by KKO, FIG. 1D)	inhibition of DT40 activation by KKO and patient samples (PF4; antagonist concentration 500 μM, KKO and plasma from three HIT patients, FIG. 1D)	Molecule	inhibition of platelet activation by KKO (release of 14C-serotonin) (platelets)	inhibition of serotonin release from platelets activated by plasma from patients with HIT (platelets; HIT plasma, several antagonist concentrations, FIG. 1F)	activation of FcγRIIA-expressing DT40 cells, substance added alone (FcγRIIA)
500	less potent	–	–	O=C(O)c1ccccc1OP(=O)(O)O [Compound 96]	inhibited	–	–
100	complete inhibition	inhibited	completely inhibited	CCOC(=O)Cn1c(CCC(=O)O)ccc1-c1ccc(Cl)cc1 [Compound 101]	inhibited	inhibited	–
